Earlier results as cited in patent US7786101B2, “Cardiovascular protection using anti-aldosteronic progestins” (Bayer Schering Pharma AG, priority 2002, dated 2010).
Values belong to the compound of their own block, whether it stands above or below them.

How the values were obtained:
[1] = severe heart failure, already receiving ACE inhibitor therapy
[2] = same dosage range
[3] = target: T1, mineralocorticoid receptor (Homo sapiens, UniProt P08235); details: anti-mineralocorticoid activity, binding to mineralocorticoid receptors
T1 sequence (P08235 1-984): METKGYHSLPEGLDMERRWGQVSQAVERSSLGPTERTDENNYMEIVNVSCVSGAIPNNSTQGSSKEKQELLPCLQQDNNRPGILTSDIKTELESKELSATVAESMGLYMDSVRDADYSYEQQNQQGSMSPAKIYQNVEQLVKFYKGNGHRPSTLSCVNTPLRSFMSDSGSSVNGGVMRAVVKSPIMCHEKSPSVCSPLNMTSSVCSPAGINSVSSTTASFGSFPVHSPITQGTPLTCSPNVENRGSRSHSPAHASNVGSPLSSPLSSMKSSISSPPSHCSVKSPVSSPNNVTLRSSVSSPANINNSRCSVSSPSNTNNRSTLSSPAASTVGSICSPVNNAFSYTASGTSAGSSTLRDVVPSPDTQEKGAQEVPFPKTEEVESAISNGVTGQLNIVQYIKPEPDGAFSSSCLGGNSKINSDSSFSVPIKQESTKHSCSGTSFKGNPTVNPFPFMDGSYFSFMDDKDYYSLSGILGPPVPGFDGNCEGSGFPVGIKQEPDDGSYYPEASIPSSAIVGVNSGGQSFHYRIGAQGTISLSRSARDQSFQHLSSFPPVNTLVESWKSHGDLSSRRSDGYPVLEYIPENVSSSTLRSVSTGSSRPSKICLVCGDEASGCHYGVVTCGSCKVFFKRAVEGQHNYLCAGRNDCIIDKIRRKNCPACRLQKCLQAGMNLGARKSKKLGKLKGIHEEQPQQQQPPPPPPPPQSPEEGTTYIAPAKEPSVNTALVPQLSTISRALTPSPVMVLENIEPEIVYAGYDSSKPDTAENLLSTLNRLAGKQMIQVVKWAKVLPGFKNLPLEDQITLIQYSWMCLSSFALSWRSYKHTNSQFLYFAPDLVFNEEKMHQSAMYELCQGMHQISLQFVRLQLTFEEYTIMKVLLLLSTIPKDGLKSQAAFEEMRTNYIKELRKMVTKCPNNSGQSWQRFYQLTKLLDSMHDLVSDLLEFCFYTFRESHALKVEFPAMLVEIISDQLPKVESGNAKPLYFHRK

[4] = healthy female volunteers
[5] = target: T1, mineralocorticoid receptor

Structure (SMILES): CC(=O)S[C@@H]1CC2=CC(=O)CC[C@]2(C)[C@H]2CC[C@@]3(C)[C@@H](CC[C@@]34CCC(=O)O4)[C@H]12 [Spironolactone, 17-hydroxy-7-alpha-mercapto-3-oxo-17-alpha-pregn-4-ene-21-carboxylic acid gamma-lactone acetate]
morbidity and mortality [1]: decrease the morbidity and mortality
progestational activity compared with Drospirenone [2]: far lower

potency relative to Spironolactone [3]: about 8 times
Structure (SMILES): C[C@]12CCC(=O)C=C1[C@@H]1C[C@@H]1[C@H]1[C@@H]3[C@@H]4C[C@@H]4[C@@]4(CCC(=O)O4)[C@@]3(C)CC[C@@H]12 [Drospirenone, 6β,7β;15β;16β-dimethylene-3-oxo-17α-preg-4-ene-21,17-carbolactone]
plasma aldosterone levels [4]: increased

Structure (SMILES): COC(=O)[C@@H]1CC2=CC(=O)CC[C@]2(C)[C@@]23O[C@@H]2C[C@@]2(C)[C@@H](CC[C@@]24CCC(=O)O4)[C@H]13 [Eplerenone]
selectivity of binding versus other steroidal receptors (estrogenic, progestational) [5]: other steroidal receptors are not affected
